Experimental data from patent US9988416B2, “Alkynyl nucleoside analogs as inhibitors of human rhinovirus” (NOVARTIS AG, priority 2016, dated 2018).

Legend:
[1] = target: T1, Human Mitochondrial RNA polymerase (POLRMT) (Homo sapiens, UniProt O00411); test: Human mitochondrial RNA polymerase single nucleotide incorporation assay; format: biochemical; details: 500 μM nucleoside triphosphate, 5 min at RT
T1 construct: Purified full length POLRMT (Enzymax, USA); purchased Enzymax
Method: Human Mitochondrial RNA Polymerase Assay.
Human mitochondrial RNA polymerase (POLRMT) single nucleotide Incorporation assay was adapted from Arnold et al. (Sensitivity of mitochondrial transcription and resistance of RNA polymerase II dependent nuclear transcription to antiviral ribonucleosides. PloS Pathogen 8(11):e1003030.). Briefly, elongation complexes were formed by incubating 500 nM POLRMT with 250 nM annealed DNA template/RNA primer duplex, in assay buffer (25 mM Tris-HCl, pH 8, 50 mM KCl, 10 mM MgCl2, 1 mM dithiothreitol, 0.2 U/μL RNasin) for 1.5 min at room temperature (RT), followed by rapid mixing with 500 μM nucleoside triphosphate substrate or inhibitor. Purified full length POLRMT (Enzymax, USA) was stored in 10 mM Tris-HCl (pH 8.0), 1 mM DTT, 100 mM NaCl and 20% glycerol. The volume of POLRMT added to any reaction was always less than or equal to one-tenth the total volume. Primer-template consisted of a 5′-FAM labeled […] RNA oligonucleotide primer SEQ. ID. NO. 2 (5′-UUUUGCCGCGCC-3′) annealed to the appropriate 18-mer DNA template to allow single addition of A, C, G or U ribonucleotide (Arnold et al. 2012). […] Electrophoresis was performed in 1×TBE buffer at 600 V. Gels were visualized with a Typhoon Imager under fluorescence detection mode and quantified with the Image Quant TL Software (GE Healthcare, Piscataway, N.J.). […]

PC-3 = test: Cox/SDH ratio assay in PC-3 cells; format: cell-based; details: Cellular assays (MP-Nuc); concentration giving Cox/SDH ratio <0.5, PC-3 cells
HepG2 [2] = test: Cox/SDH ratio assay in HepG2 cells; format: cell-based; details: Cellular assays (MP-Nuc); concentration giving Cox/SDH ratio <0.5, HepG2 cells
Dengue virus (PBMCs) = test: Activity on Dengue virus in PBMCs; format: cell-based; details: PBMC, read-out: Activity on HRV strains and other viruses: Dengue virus (PBMCs)
HepG2 [3] = test: Cytotoxicity (CC50 assay) in HepG2; format: cell-based; details: N = 7+; CC50, 72 hours, Cell-Titer Glo
Method: (§1) Cytotoxicity (CC50 Assay) in HepG2 & K562 White TC grade Greiner 384-well assay plates were stamped with 0.5 ul of compound in 90% DMSO/10% water. HepG2 cells were trypsinized and collected into 50 ml falcon tube. K562 suspension cells were collected in 50 ml falcon tube. Both tubes containing cells were spun in benchtop centrifuge at 1200 rpm for 5 mins. The supernatant was discarded and the cell pellet was re-suspended in fresh culture media (HepG2: DMEM:F12 mix+10% FBS+1% Pen/Strep & K562: IMDM+10% FBS+1% Pen-Strep). Cells were counted using a hemocytometer and cells were diluted to a working suspension of 50,000 cells/ml for HepG2, and 20,000 cells/ml for K562. 50 ul of cells suspension was added to each well of 384-assay plate. Assay plates were incubated at 37° C., 5% CO2, 90% humidity incubator for 72 hours. Assay plates were then treated with 25 ul of Promega's Cell-Titer Glo® reagent, and incubated at room temperature for 10 mins. Plates were read on PolarStar-Omega using the Luminescence setting and a Gain of 3300.

K562 = test: Cytotoxicity (CC50 assay) in K562; format: cell-based; details: N = 3; CC50, 72 hours, Cell-Titer Glo
Method: as §1

PC3 = PC3 cytotoxicity assay; format: cell-based; details: 3 or 5 days at 37° C., CellTiter-Glo
Method: (§2) MT4 and PC3 Cytotoxicity Assay. Compounds were serially diluted in DMSO in half-logarithmic steps starting from 10 mM. 0.5 μL of serially diluted compound was transferred to the assay plates (Greiner cat#781080). Cells were added to the assay-ready compound plates in 50 μL of RPMI 1640 medium supplemented with 10% FBS (NCS Lot OS-161071), 1× penicillin/streptomycin solution (CellGro/Mediatech, Manassas, Va.; 30-002-CI), and incubated at 37° C. for 3 or 5 days. Control wells included DMSO alone (100% inhibition). Cell viability was determined using the CellTiter-Glo® Luminescent Cell Viability Assay (Promega, G7573) according to the manufacturer's protocol and a POLARstar Omega Luminometer (BMG Labtech).

MT4 = MT4 cytotoxicity assay; format: cell-based; details: N = 2; 3 or 5 days at 37° C., CellTiter-Glo
Method: as §2

Chikungunya virus = test: Activity on Chikungunya virus; format: cell-based; details: read-out: Activity on HRV strains and other viruses: Chikungunya virus
HRV15 (c-type) = test: HRV replicon assay (Group C replicon); format: cell-based; details: Human rhinovirus sp., HRV15, H1-HeLa, read-out: Activity on HRV strains and other viruses: HRV15 (c-type)
Method: This assay was based on the Group C replicon previously described (Mello et al, Antimicrobial Agents and Chemotherapy, 2014) with the modification that the P1 region was replaced with the cDNA encoding Nanoluciferase (Promega Corporation, Madiso, Wis.) Compounds were serially diluted in DMSO in half-logarithmic steps starting from 5 mM. Of each dilution, 0.5 μL were transferred to the assay plates. H1-HeLa cells were trypsinized, washed twice with ice-cold OptiMem® Gibco, 31985), resuspended at 1.5×10^7 cells/ml in OptiMem®, and stored on ice. A total of 6×10^6 cells were electroporated (270 V, 950 μF, ∞ resistance) with 25 ng of in vitro-transcribed RNA and allowed to rest on ice for 10 min. Electroporated cells were then diluted DMEM supplemented with 0.1% BSA (Gibco, 15260), 1× penicillin/streptomycin solution (CellGro/Mediatech, Manassas, Va.; 30-002-CI) to a final concentration 4×10^5 cells/ml. 50 μl of cells were then added to the compounds then incubated for […] at 33° C. Luciferase signal was then measured after 48 h using the NanoGlo® Detection Kit Assay (Promega, N1150) according to the manufacturer's protocol and a POLARstar Omega Luminometer (BMG Labtech).

HRV86 = test: HRV cytopathic effect (CPE) assay; format: cell-based; details: Human rhinovirus sp., H1-HeLa cells, 72 h at 33° C., CellTiter-Glo, read-out: Activity on HRV strains and other viruses: HRV86
Method: (§3) HRV Cytopathic Effect (CPE) Assay.
(§4) Compounds were serially diluted in DMSO in half-logarithmic steps starting from 5 mM. Of each dilution, 0.5 μL were transferred to the assay plates. H1-HeLa cells were added to the assay-ready compound plates in 45 μL DMEM supplemented with 0.1% BSA (Gibco, 15260), 1× penicillin/streptomycin solution (CellGro/Mediatech, Manassas, Va.; 30-002-CI), and 1× non-essential amino acids (CellGro; 25-025-CI) at 5000 cells/well into triplicate 384-well plates and incubated at 33° C. for 6 hours. Control wells included DMSO alone (100% inhibition) and DMSO plus virus (0% inhibition). After 6 h incubation at 33° C., 5 μL of human rhinovirus stock was added at an MOI that effectively kills 99% of cells within 72 hours. Plates were then incubated for 72 h at 33° C. Cell viability was determined using the CellTiter-Glo® Luminescent Cell Viability Assay (Promega, G7573) according to the manufacturer's protocol and a POLARstar Omega Luminometer (BMG Labtech).

HRV39 = test: HRV cytopathic effect (CPE) assay; format: cell-based; details: Human rhinovirus sp., H1-HeLa cells, 72 h at 33° C., CellTiter-Glo, read-out: Activity on HRV strains and other viruses: HRV39
Method: as §3, §4

HRV10 = test: HRV cytopathic effect (CPE) assay; format: cell-based; details: Human rhinovirus sp., H1-HeLa cells, 72 h at 33° C., CellTiter-Glo, read-out: Activity on HRV strains and other viruses: HRV10
Method: as §3, §4

HRV16 = test: HRV cytopathic effect (CPE) assay; format: cell-based; details: Human rhinovirus sp., H1-HeLa cells, 72 h at 33° C., CellTiter-Glo, read-out: Activity on HRV strains and other viruses: HRV16
Method: as §3, §4

HRV14 = test: HRV cytopathic effect (CPE) assay; format: cell-based; details: Human rhinovirus sp., H1-HeLa cells, 72 h at 33° C., CellTiter-Glo, read-out: Activity on HRV strains and other viruses: HRV14
Method: as §3, §4

HRV29 = test: HRV cytopathic effect (CPE) assay; format: cell-based; details: Human rhinovirus sp., H1-HeLa cells, 72 h at 33° C., CellTiter-Glo, read-out: Activity on HRV strains and other viruses: HRV29
Method: as §3, §4

T1 sequence (O00411 42-1230): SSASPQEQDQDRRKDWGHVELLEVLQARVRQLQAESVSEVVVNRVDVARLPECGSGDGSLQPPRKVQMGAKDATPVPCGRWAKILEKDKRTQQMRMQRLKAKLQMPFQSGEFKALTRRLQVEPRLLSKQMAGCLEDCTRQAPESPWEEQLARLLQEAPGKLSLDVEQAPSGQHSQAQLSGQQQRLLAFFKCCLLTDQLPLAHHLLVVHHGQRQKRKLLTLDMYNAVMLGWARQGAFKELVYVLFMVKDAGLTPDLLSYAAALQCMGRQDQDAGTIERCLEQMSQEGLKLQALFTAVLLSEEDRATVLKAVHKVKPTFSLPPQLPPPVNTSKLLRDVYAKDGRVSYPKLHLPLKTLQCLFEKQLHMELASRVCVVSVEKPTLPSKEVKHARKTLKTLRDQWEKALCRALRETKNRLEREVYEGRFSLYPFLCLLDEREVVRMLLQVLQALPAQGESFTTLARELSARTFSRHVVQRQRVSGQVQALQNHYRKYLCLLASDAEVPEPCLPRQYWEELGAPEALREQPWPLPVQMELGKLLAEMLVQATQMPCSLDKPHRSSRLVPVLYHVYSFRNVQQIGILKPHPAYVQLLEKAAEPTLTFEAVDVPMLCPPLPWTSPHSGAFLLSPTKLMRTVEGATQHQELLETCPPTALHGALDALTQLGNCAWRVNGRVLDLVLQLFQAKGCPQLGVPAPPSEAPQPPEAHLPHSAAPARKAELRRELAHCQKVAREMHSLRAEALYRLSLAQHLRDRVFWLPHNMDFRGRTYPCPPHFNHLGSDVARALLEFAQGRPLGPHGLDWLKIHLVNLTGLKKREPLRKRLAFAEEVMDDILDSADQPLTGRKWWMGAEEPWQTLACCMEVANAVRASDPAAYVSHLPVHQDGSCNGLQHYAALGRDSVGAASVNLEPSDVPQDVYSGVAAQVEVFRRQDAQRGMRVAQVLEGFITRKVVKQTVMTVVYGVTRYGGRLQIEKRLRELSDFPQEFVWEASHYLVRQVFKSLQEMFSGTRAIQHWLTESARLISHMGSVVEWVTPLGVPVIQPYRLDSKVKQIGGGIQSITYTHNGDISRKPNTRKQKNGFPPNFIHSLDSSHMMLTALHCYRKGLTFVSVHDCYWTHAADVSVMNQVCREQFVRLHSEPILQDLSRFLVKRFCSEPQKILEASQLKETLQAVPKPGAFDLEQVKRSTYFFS

## C[C@@]1(F)[C@H](O)[C@@H](COP(=O)(O)OP(=O)(O)OP(=O)(O)O)O[C@H]1n1ccc(=O)[nH]c1=O [Sofosbuvir TP, reference compound]
[1]
  Human Mitochondrial RNA polymerase incorporation: 1.9% (Sofosbuvir TP)

## [N-]=[N+]=N[C@]1(CO)O[C@@H](n2ccc(N)nc2=O)[C@H](O)[C@@H]1O [4′-Azido cytidine, 4′-azido-cytidine, reference compound]
PC-3
  PC-3 Cox/SDH ratio <0.5: 25 µM
HepG2 [2]
  HepG2 Cox/SDH ratio <0.5: 200 µM

## CC#C[C@]1(O)[C@H](n2ccc3c(N)ncnc32)O[C@](F)(COP(=O)(O)OP(=O)(O)OP(=O)(O)O)[C@H]1O [Example 3]
[1]
  Human Mitochondrial RNA polymerase incorporation: 1.9% (Examples)

## CC#C[C@]1(O)[C@H](n2ccc3c(N)ncnc32)O[C@](F)(COP(=O)(OCOC(=O)OC(C)C)OCOC(=O)OC(C)C)[C@H]1O [Example 2, ((2S,3S,4R,5R)-5-(4-amino-7H-pyrrolo[2,3-d]pyrimidin-7-yl)-2-fluoro-3,4-dihydroxy-4-(prop-1-yn-1-yl)tetrahydrofuran-2-yl)methyl bis(((1-isopropoxycarbonyl)oxy)methyl) phosphate]
Dengue virus (PBMCs)
  EC50: 2050 nM
HepG2 [3]
  Cytotoxicity Assay Results: HepG2: >100 µM
K562
  Cytotoxicity Assay Results: K562: >100 µM
PC3
  Cytotoxicity Assay Results: PC3: >200 µM
MT4
  Cytotoxicity Assay Results: MT4: >100 µM
Chikungunya virus
  EC50: 1000 nM
HRV15 (c-type)
  EC50: 700 nM
HRV86
  EC50: 400 nM
HRV39
  EC50: 600 nM
HRV10
  EC50: 800 nM
HRV16
  EC50: 600 nM
HRV14
  EC50: 700 nM
HRV29
  EC50: 700 nM
PC-3
  PC-3 Cox/SDH ratio <0.5: >200 µM
HepG2 [2]
  HepG2 Cox/SDH ratio <0.5: >200 µM
